Read-outs that look alike come from different tables or passages of the source.
Molecular target: SHP2 (Homo sapiens (Human), UniProt Q06124)
Assay: SHP2 allosteric inhibition assay (DiFMUP prompt fluorescence)
Type: biochemical
Protocol: SHP2 is allosterically activated through binding of bis-tyrosyl-phorphorylated peptides to its Src Homology 2 (SH2) domains. The latter activation step leads to the release of the auto-inhibitory interface of SHP2, which in turn renders the SHP2 protein tyrosine phosphatase (PTP) active and available for substrate recognition and reaction catalysis. The catalytic activity of SHP2 was monitored using the surrogate substrate DiFMUP in a prompt fluorescence assay format.
After 30-60 minutes incubation at 25° C., the surrogate substrate DiFMUP (Invitrogen, cat#D6567) was added to the reaction and incubated at 25° C. for 30 minutes. […] The fluorescence signal was monitored using a microplate reader (Envision, Perki-Elmer) using excitation and emission wavelengths of 340 nm and 450 nm, respectively. The inhibitor dose response curves were analyzed using normalized IC50 regression curve fitting with control based normalization.

[1] = 0.5 nM SHP2 activated with 0.5 μM peptide IRS1_pY1172(dPEG8)pY1222, substrate DiFMUP, 25° C., read-out: IC50

Row | IC50 [1] | IC50 | SMILES
1 | 210 nM | – | CC1(N)CCN(c2cnc(Sc3ccc(Cl)cc3Cl)c(N)n2)CC1 [Example 6]
2 | 44 nM | – | CC1(N)CCN(c2cnc(Sc3ccc(Br)cc3Cl)c(N)n2)CC1 [Example 22]
3 | 46 nM | – | CC1(N)CCN(c2cnc(Sc3cccc(N)c3C(F)(F)F)c(N)n2)CC1 [Example 21]
4 | 64400 nM | – | CC1(N)CCN(c2cnc(Oc3cccc(Cl)c3Cl)c(N)n2)CC1 [Example 8]
5 | 62 nM | – | Nc1nc(N2CCC(N)(CO)CC2)cnc1Sc1ccnc(Cl)c1Cl [Example 52, (4-amino-1-(6-amino-5-((2,3-dichloropyridin-4-yl)thio)pyrazin-2-yl)piperidin-4-yl)methanol]
6 | 1080 nM | – | CC1(N)CCN(c2cnc(Sc3cc(Cl)ccc3Cl)c(N)n2)CC1 [Example 5]
7 | 54 nM | – | NCC1(c2cccnc2)CCN(c2cnc(Sc3cccc(Cl)c3Cl)c(N)n2)CC1 [Example 28, 6-(4-(aminomethyl)-4-(pyridin-3-yl)piperidin-1-yl)-3-((2,3-dichlorophenyl)thio)pyrazin-2-amine]
8 | 195 nM | – | Nc1cccc(Sc2ncc(N3CCC(N)(CO)CC3)nc2N)c1Cl [Example 32]
9 | – | 29 nM | CC1(N)CCN(c2cnc(Sc3cccc(Cl)c3Cl)c(N)n2)CC1 [Example 1, 6-(4-amino-4-methylpiperidin-1-yl)-3-((2,3-dichlorophenyl)thio)pyrazin-2-amine]
10 | 271 nM | – | NCC1(F)CCN(c2cnc(Sc3cccc(N)c3Cl)c(N)n2)CC1 [Example 44, 3-((3-amino-2-chlorophenyl)thio)-6-(4-(aminomethyl)-4-fluoropiperidin-1-yl)pyrazin-2-amine]
11 | 51 nM | – | CC1(N)CCN(c2cnc(Sc3ccc(F)cc3Cl)c(N)n2)CC1 [Example 23]
12 | 307 nM | – | CC1(N)CCN(c2cnc(Sc3cc(O)ccc3Cl)c(N)n2)CC1 [Example 9, 3-((3-amino-5-(4-amino-4-methylpiperidin-1-yl)pyrazin-2-yl)thio)-4-chlorophenol]
13 | 100 nM | – | CC1(CN)CCN(c2cnc(Sc3ccnc(Cl)c3Cl)c(N)n2)CC1 [Example 49]
14 | 382 nM | – | NCC1(O)CCN(c2cnc(Sc3cccc(N)c3Cl)c(N)n2)CC1 [Example 47]
15 | 22 nM | – | CC1(CN)CCN(c2cnc(Sc3cccc(N)c3Cl)c(N)n2)CC1 [Example 20]
16 | 19 nM | – | CC1(CN)CCN(c2nc(N)c(Sc3cccc(Cl)c3Cl)nc2C(N)=O)CC1 [Example 33, 5-amino-3-(4-(aminomethyl)-4-methylpiperidin-1-yl)-6-((2,3-dichlorophenyl)thio)pyrazine-2-carboxamide]
17 | 13700 nM | – | COc1ccc(Cl)c(Sc2ncc(N3CCC(C)(N)CC3)nc2N)c1 [Example 7]
18 | 49 nM | – | C[C@@]1(N)CCN(c2cnc(Sc3cccc(Cl)c3Cl)c(N)n2)C[C@H]1O [Example 24]
19 | 56 nM | – | COc1cccc(Sc2ncc(N3CCC(C)(N)CC3)nc2N)c1Cl [Example 10, 6-(4-amino-4-methylpiperidin-1-yl)-3-((2-chloro-3-methoxyphenyl)thio)pyrazin-2-amine]
20 | 26 nM | – | CC1(CN)CCN(c2cnc(Sc3cccnc3Cl)c(N)n2)CC1 [Example 39, 6-(4-(aminomethyl)-4-methylpiperidin-1-yl)-3-((2-chloropyridin-3-yl)thio)pyrazin-2-amine]
21 | 14 nM | – | CC1(CN)CCN(c2cnc(Sc3ccnc(Cl)c3Cl)c(N)n2)CC1 [Example 43, 6-(4-(aminomethyl)-4-methylpiperidin-1-yl)-3-((2,3-dichloropyridin-4-yl)thio)pyrazin-2-amine]

The next lines start with the compound.

Row | SMILES | IC50 [1] | IC50
22 | CC1(N)CCN(c2nnc(Sc3ccccc3Cl)c(N)n2)CC1 [Example 15] | 266 nM | –
23 | Nc1nc(N2CCC(N)(CO)CC2)cnc1Sc1ccnc(N)c1Cl [Example 53] | 315 nM | –
24 | CC1(N)CCN(c2cnc(Sc3cccc(NC(=O)c4ccc5ccccc5c4)c3Cl)c(N)n2)CC1 [Example 13] | 257 nM | –
25 | NCC1CCCN(c2cnc(Sc3cccnc3C(F)(F)F)c(N)n2)C1 (stereo not drawn) [Example 46] | 459 nM | –
26 | Nc1nc(N2CCC(N)(CO)CC2)cnc1Sc1cccnc1C(F)(F)F [Example 54] | 170 nM | –
27 | CC1(CN)CCN(c2cnc(Sc3ccnc(N)c3Cl)c(N)n2)CC1 [Example 42, 3-((2-amino-3-chloropyridin-4-yl)thio)-6-(4-(aminomethyl)-4-methylpiperidin-1-yl)pyrazin-2-amine] | 23 nM | –
28 | CC1(CN)CCN(c2cnc(Sc3cc(N)nc(Cl)c3Cl)c(N)n2)CC1 [Example 55] | 17.7 nM | –
29 | CC1(N)CCN(c2cnc(Sc3ccccc3Cl)c(N)n2)CC1 [Example 2] | 70 nM | –
30 | CC1(N)CCN(c2cnc(Sc3ccc(-c4nn[nH]n4)cc3Cl)c(N)n2)CC1 [Example 38, 6-(4-amino-4-methylpiperidin-1-yl)-3-((2-chloro-4-(2H-tetrazol-5-yl)phenyl)thio)pyrazin-2-amine] | 23 nM | –
31 | NCC1(c2cscn2)CCN(c2cnc(Sc3cccnc3C(F)(F)F)c(N)n2)CC1 [Example 40, 6-(4-(aminomethyl)-4-(thiazol-4-yl)piperidin-1-yl)-3-((2-(trifluoromethyl)pyridin-3-yl)thio)pyrazin-2-amine] | 79 nM | –
32 | CC1(N)CCN(c2cnc(Sc3ccncc3Cl)c(N)n2)CC1 [Example 36, 6-(4-amino-4-methylpiperidin-1-yl)-3-((3-chloropyridin-4-yl)thio)pyrazin-2-amine] | 76 nM | –
33 | CC1(CN)CCN(c2cnc(Sc3ccncc3F)c(N)n2)CC1 [Example 48] | 177 nM | –
34 | CC1(N)CCN(c2cnc(Sc3cccnc3C(F)(F)F)c(N)n2)CC1 [Example 30] | 66 nM | –
35 | CC1(N)CCN(c2cnc(Sc3ccnc(C(F)(F)F)c3Cl)c(N)n2)CC1 [Example 37] | 82 nM | –
36 | CC1(N)CCN(c2cnc(Sc3ccc(F)cc3C(F)(F)F)c(N)n2)CC1 [Example 26] | 67 nM | –
37 | CCCC1(CN)CCN(c2cnc(Sc3ccnc(N)c3Cl)c(N)n2)CC1 [Example 51] | 17 nM | –
38 | CC1(CN)CCN(c2nc(N)c(Sc3cccnc3C(F)(F)F)nc2C(N)=O)CC1 [Example 35] | 109 nM | –
39 | CC1(CN)CCN(c2cnc(Sc3cccnc3C(F)(F)F)c(N)c2)CC1 [Example 45] | 351 nM | –
40 | CC1(N)CCN(c2cnc(Sc3ccccc3C(F)(F)F)c(N)n2)CC1 [Example 4, 6-(4-amino-4-methylpiperidin-1-yl)-3-((2-(trifluoromethyl)phenyl)thio)pyrazin-2-amine] | 59 nM | –
41 | CC1(N)CCN(c2nnc(Sc3cccc(Cl)c3Cl)c(N)n2)CC1 [Example 14, 3-(4-amino-4-methylpiperidin-1-yl)-6-((2,3-dichlorophenyl)thio)-1,2,4-triazin-5-amine] | 143 nM | –
42 | CCC1(CN)CCN(c2cnc(Sc3ccnc(N)c3Cl)c(N)n2)CC1 [Example 50] | 59 nM | –

From patent publication US10301278B2, “1-(triazin-3-yl/pyridazin-3-yl)-piper(-azine)idine derivatives and compositions therefor for inhibiting the activity of SHP2” (NOVARTIS AG, priority 2014, dated 2019)
